# Earlier results, collected in US20130130972A1, “ARTIFICIAL SWEETNERS AND PERFORMANCE” (priority 2010, published 2013).
# Where a SMILES comes first, the peptide text is derived from it.
# Conditions: typically perceived sweetness, relative to sugar
row,Molecule,Sweetness by weight compared to sugar
1,CC1=CC(=O)NS(=O)(=O)O1 [Acesulfame potassium],200×
2,C[C@@H](NC(=O)[C@@H](N)CC(=O)O)C(=O)NC1C(C)(C)SC1(C)C [Alitame],2.000×
3,COC(=O)[C@H](Cc1ccccc1)NC(=O)[C@@H](N)CC(=O)O [Aspartame] (H-Asp-Phe-OMe),160-200×
4,CCOc1ccc(NC(N)=O)cc1 [Dulcin],250×
5,OC[C@@H](O)[C@@H](O)CO [Erythritol],0.7×
6,OCC(O)CO [Glycerol],0.6×
7,CC1(C)[C@@H](O[C@H]2O[C@H](C(=O)O)[C@@H](O)[C@H](O)[C@H]2O[C@@H]2O[C@H](C(=O)O)[C@@H](O)[C@H](O)[C@H]2O)CC[C@]2(C)[C@H]3C(=O)C=C4[C@@H]5C[C@@](C)(C(=O)O)CC[C@]5(C)CC[C@@]4(C)[C@]3(C)CC[C@@H]12 [Glycyrrhizin],50×
8,OC[C@@H](O)[C@@H](O[C@@H]1O[C@H](CO)[C@H](O)[C@H](O)[C@H]1O)[C@H](O)[C@@H](O)CO [Lactitol],0.4×
9,OC[C@@H](O)[C@@H](O[C@H]1O[C@H](CO)[C@@H](O)[C@H](O)[C@H]1O)[C@H](O)[C@@H](O)CO [Maltitol],0.9×
10,OC[C@@H](O)[C@@H](O)[C@H](O)[C@H](O)CO [Mannitol],0.5×
11,COc1ccc(CCC(=O)c2c(O)cc(O[C@@H]3O[C@H](CO)[C@@H](O)[C@H](O)[C@H]3O[C@@H]3O[C@@H](C)[C@H](O)[C@@H](O)[C@H]3O)cc2O)cc1O [Neohesperidin dihydrochalcone],1500×
12,COC(=O)[C@H](Cc1ccccc1)NC(=O)[C@H](CC(=O)O)NCCC(C)(C)C [Neotame],8000×
13,CCCOc1ccc([N+](=O)[O-])cc1N [P-4000],4000×
14,O=C1NS(=O)(=O)c2ccccc21 [Saccharin],300×
15,CC1=CC(=O)NS(=O)(=O)O1.COC(=O)[C@H](Cc1ccccc1)NC(=O)[C@@H](N)CC(=O)O [Salt of aspartame-acesulfame] (H-Asp-Phe-OMe),350×
16,OC[C@@H](O)[C@@H](O)[C@H](O)[C@@H](O)CO [Sorbitol],0.6×
17,OC[C@H]1O[C@H](O[C@]2(CCl)O[C@H](CCl)[C@@H](O)[C@@H]2O)[C@H](O)[C@@H](O)[C@H]1Cl [Sucralose],600×
18,O=C(CO)[C@@H](O)[C@@H](O)[C@H](O)CO [Tagatose],0.92×
19,OC[C@@H](O)[C@H](O)[C@@H](O)CO [Xylitol],1.0×
20,"Brazzein (QDKCKKVYENYPVSKCQLANQCNYDCKLDKHARSGECFYDEKRNLQCICDYCEY; UniProt P56552 1-54, looked up) [natural sugar substitute]",800×
21,Curculin,550×
22,Glucin,300×
23,Mabinlin [Mabinlin Protein],100×
24,Monellin,3000×
25,Pentadin,500×
26,Thaumatin,2000×
